Our source for the GI50 and TGI values is PubChem BioAssay (NCI).

Among the test systems are SR leukemia; OVCAR-8 ovarian; MALME-3M melanoma; NCI-H226 lung; HOP-92 NSCLC; SK-OV-3 ovarian; RPMI-8226 leukemia; EKVX NSCLC; SNB-75 CNS; ACHN renal.
Common to all, as to assay: growth of human tumour cells (NCI), 48 h

Each structure is given as a SMILES string. Several values for one entry are separate records, joined by “and”; a condition that tells them apart may be missing. Equal entries are not always repeated.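 Growth conditions: 96-well plates. Treatment: test compound, 48 hours, 5 concentrations. Analysis: linear interpolation between bracketing concentrations; unreached endpoints set to highest concentration. Here, GI50 denotes the concentration required for 50% inhibition of growth. TGI is the concentration that stops growth completely.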 Bounds are passed on as bounds.

Regarding `COc1ccc(/C=C\c2cc(OC)c(OC)c(OC)c2)cc1OC`, the GI50 with SR leukemia is 0.0204 µM; in the assay with OVCAR-8 ovarian, 0.275 µM; in the assay on NCI-H226 lung it was 0.297 µM; in the assay on HOP-92 NSCLC it was 0.0473 µM; with SK-OV-3 ovarian, 0.187 µM; in the assay with RPMI-8226 leukemia, 0.224 µM. In addition, the GI50 is 0.333 µM in the assay with EKVX NSCLC and 0.763 µM in the assay with ACHN renal. The TGI was 0.277 µM and 0.0612 µM in the assay on SR leukemia; 91.6 µM with MALME-3M melanoma; 40.4 µM and 8.55 µM in the assay on HOP-92 NSCLC; over 100 µM in the assay on SK-OV-3 ovarian; 12.4 µM and 15.8 µM in the assay on RPMI-8226 leukemia; 40.4 µM and > 100 µM in the assay on EKVX NSCLC. For the same compound, the TGI in the assay on SNB-75 CNS is 40.4 µM; in the assay with ACHN renal it was 40.4 µM and 85 µM.

As for `O=S1(=O)OCCOS(=O)(=O)C1Cc1ccccc1`, the TGI with SR leukemia, in the assay on OVCAR-8 ovarian, in the assay on MALME-3M melanoma, in the assay with NCI-H226 lung, with HOP-92 NSCLC and in the assay on SK-OV-3 ovarian was over 100 µM each time. Moreover, the TGI in the assay with RPMI-8226 leukemia is 69.2 µM; in the assay with EKVX NSCLC, over 100 µM; in the assay with SNB-75 CNS, over 100 µM; in the assay with ACHN renal it was over 100 µM.
